Source: ChEMBL document CHEMBL3397027, “Design, synthesis and evaluation of chromone-2-carboxamido-alkylbenzylamines as multifunctional agents for the treatment of Alzheimer's disease” (Bioorg Med Chem, 2015)

Experiments:
Acetylcholinesterase [1] = molecular target: T1, Acetylcholinesterase (Rattus norvegicus, UniProt P37136); assay: Inhibition of AChE from rat cortex homogenate using acetylthiocholine iodide as substrate after 15 mins by Ellman method
T1 sequence (P37136 whole entry): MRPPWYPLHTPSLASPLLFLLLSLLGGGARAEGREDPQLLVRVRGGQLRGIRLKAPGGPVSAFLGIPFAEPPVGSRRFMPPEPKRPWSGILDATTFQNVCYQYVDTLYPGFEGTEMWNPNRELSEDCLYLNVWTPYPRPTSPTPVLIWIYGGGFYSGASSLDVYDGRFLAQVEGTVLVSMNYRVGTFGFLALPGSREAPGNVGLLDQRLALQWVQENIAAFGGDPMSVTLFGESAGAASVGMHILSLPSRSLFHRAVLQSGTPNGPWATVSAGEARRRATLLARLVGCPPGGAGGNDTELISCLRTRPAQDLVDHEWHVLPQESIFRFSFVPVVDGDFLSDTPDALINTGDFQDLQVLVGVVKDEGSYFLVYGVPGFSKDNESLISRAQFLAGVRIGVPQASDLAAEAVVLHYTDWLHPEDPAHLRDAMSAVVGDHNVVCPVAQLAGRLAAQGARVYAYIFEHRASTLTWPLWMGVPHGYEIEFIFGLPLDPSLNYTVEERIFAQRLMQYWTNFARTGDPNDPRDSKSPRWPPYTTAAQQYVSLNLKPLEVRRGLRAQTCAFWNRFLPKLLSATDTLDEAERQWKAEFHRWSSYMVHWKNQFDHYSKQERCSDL

[2] = Inhibition of rat serum BuChE using butyrylthiocholine iodide as substrate after 15 mins by Ellman method; format: cell-free
Acetylcholinesterase [3] = molecular target: Acetylcholinesterase (Electrophorus electricus, UniProt O42275); assay: Inhibition of electric eel AChE using acetylthiocholine iodide as substrate after 15 mins by Ellman method; conditions: read-out: IC50
Acetylcholinesterase (Electrophorus electricus, UniProt O42275), sequence (O42275 whole entry): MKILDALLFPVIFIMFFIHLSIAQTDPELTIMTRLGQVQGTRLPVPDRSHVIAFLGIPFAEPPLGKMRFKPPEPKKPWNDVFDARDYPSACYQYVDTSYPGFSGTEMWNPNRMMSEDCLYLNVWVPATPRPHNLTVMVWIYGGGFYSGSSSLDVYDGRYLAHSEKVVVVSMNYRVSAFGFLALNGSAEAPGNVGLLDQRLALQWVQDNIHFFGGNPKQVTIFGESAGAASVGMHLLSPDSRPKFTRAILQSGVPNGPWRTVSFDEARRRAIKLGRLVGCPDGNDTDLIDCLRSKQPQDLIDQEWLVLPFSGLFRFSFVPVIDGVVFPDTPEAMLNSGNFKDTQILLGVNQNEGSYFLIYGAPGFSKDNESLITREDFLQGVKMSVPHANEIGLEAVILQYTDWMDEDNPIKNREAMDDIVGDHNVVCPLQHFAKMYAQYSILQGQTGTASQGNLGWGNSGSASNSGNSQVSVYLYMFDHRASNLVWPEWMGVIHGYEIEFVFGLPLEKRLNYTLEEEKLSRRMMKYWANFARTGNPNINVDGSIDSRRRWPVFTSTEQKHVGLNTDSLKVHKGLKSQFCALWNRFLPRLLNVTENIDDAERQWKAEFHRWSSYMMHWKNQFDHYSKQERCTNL

Rattus norvegicus = species on record: Rattus norvegicus; assay: Selectivity index, ratio of IC50 for rat serum BuChE to IC50 for AChE from rat cortex homogenate; format: cell-free
[4] = Antioxidant activity assessed as AAPH scavenging activity measured as trolox equivalent at 5 uM after 15 mins by ORAC-FL method relative to control; format: physicochemical; conditions: 0.25 h
[5] = molecular target: Amyloid-beta precursor protein (Homo sapiens) (UniProt P05067); assay: Inhibition of self-mediated aggregation of amyloid beta (1-42) (unknown origin) at 25 uM after 24 hrs by thioflavin T fluorescence-based fluorimetric method
Amyloid-beta precursor protein (Homo sapiens), sequence (P05067 whole entry): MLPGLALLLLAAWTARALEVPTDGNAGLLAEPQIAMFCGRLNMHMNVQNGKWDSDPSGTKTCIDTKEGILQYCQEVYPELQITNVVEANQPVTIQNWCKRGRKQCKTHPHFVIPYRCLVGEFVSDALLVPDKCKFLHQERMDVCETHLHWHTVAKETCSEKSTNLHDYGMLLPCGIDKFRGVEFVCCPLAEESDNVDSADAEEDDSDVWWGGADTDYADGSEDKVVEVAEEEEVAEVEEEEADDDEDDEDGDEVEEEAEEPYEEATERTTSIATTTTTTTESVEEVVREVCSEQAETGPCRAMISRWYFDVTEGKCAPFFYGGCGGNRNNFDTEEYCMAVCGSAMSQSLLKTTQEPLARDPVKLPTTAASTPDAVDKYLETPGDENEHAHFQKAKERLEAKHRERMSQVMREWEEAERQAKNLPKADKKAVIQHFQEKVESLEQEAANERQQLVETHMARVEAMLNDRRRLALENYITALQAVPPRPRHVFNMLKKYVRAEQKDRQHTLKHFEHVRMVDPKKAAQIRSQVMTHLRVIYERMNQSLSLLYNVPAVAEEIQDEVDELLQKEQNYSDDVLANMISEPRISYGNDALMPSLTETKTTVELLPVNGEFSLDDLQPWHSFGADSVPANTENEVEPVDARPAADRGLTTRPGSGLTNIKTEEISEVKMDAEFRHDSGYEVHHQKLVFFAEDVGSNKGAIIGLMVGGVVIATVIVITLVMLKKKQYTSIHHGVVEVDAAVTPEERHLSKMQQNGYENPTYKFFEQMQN

[6] = molecular target: Amyloid-beta precursor protein (Homo sapiens) (UniProt P05067); assay: Inhibition of Cu2+-mediated aggregation of amyloid beta (1-42) (unknown origin) at 25 uM after 24 hrs by thioflavin T fluorescence-based fluorimetric method

SMILES	IC50 (Acetylcholinesterase [1]) [µM]	IC50 [2] [µM]	IC50 (Acetylcholinesterase [3]) [µM]	Ratio IC50 (Rattus norvegicus)	fold change (FC) [4]	inhibition [5] [%]	inhibition [6] [%]
CCN(CCCNC(=O)c1cc(=O)c2c(O)cc(O)cc2o1)Cc1ccccc1OC	6.85	> 200	49.7	> 29.2	2.1	35.1	18.1
CCN(CCCCNC(=O)c1cc(=O)c2c(O)cc(OC)cc2o1)Cc1ccc(N(C)C)cc1	7.45	57.5	9.05	7.7	2.2	37.1	28.8
COc1cc(/C=C/C(=O)CC(=O)/C=C/c2ccc(O)c(OC)c2)ccc1O							58
CN(CCCNC(=O)c1cc(=O)c2c(O)cccc2o1)Cc1ccccc1	19.6	120	24.4	6.1	0.85	43.9	25.8
COc1cc(O)c2c(=O)cc(C(=O)O)oc2c1	> 200	> 200	> 200		0.87		
CCN(CCCCNC(=O)c1cc(=O)c2c(O)cc(N(C)C)cc2o1)Cc1ccccc1OC	0.91	109	4.02	120	1.05	41.1	36.9
COc1cc(O)c2c(=O)cc(C(=O)NCCCN(C)Cc3ccccc3OC)oc2c1	4.01	171	9.8	42.5	0.93	43.6	28.7
COc1cc2c(cc1OC)C(=O)C(CC1CCN(Cc3ccccc3)CC1)C2 (stereo not given) [DONEPEZIL]		20.7					
CCN(CCCCCCNC(=O)c1cc(=O)c2c(O)cccc2o1)Cc1ccccc1OC	0.19	23.2	0.53	122	0.87	63	55.6
CCN(CCCNC(=O)c1cc(=O)c2c(O)cccc2o1)Cc1ccccc1OC	0.41	93.4	13.9	228	1.13	48.7	35.2
COc1cc(O)c2c(=O)cc(C(=O)NCCCN(C)Cc3ccccc3)oc2c1	15.3	> 200	3.12	> 13.1	0.46	23	24.3
CCN(CCCCNC(=O)c1cc(=O)c2c(O)cc(OC)cc2o1)Cc1ccccc1OC	0.33	86.5	1.16	262	0.62	51	38.9
CCN(CCCCCCNC(=O)c1cc(=O)c2c(O)cc(OC)cc2o1)Cc1ccccc1	1.7	53.5	1.38	31.5	0.65	28.6	42.6
CCN(CCCCNC(=O)c1cc(=O)c2c(O)cc(O)cc2o1)Cc1ccccc1OC	1.11	141	36.2	127	2.3	37.8	32.1
COc1ccccc1CN(C)CCCCNC(=O)c1cc(=O)c2c(O)cccc2o1	1.37	55	3.29	40.1	0.81	49.3	24.1
CCOC(=O)c1cc(=O)c2c(O)cccc2o1	> 200	> 200	> 200		0.78		
COc1cc(O)c2c(=O)cc(C(=O)NCCCCN3CCOc4ccccc4C3)oc2c1	> 200	> 200	> 200		0.68	40.9	35
